The results in this text go back to patent US11718616B2, “JAK kinase inhibitor compounds for treatment of respiratory disease” (THERAVANCE BIOPHARMA R&D IP, LLC, priority 2015, dated 2023).

Each structure is given as a SMILES string.

The subject of series [1] is IL-13 induced pSTAT6 induction in lung tissue. Briefly: Murine model of IL-13 induced pSTAT6 induction in lung tissue. The following applies: for pSTAT6 inhibition in the pharmacodynamic assay: mouse lung, Assay 5 conditions; for lung concentration smaller than that of the corresponding compound of the invention by a factor of: mouse lung in pharmacodynamic assay, C-1 vs Example 1, C-2 vs 7, C-3 vs 13, C-4 vs 6. The series is classed as in vivo, mouse. The protocol:
Il-13 is an important cytokine underlying the pathophysiology of asthma (Kudlacz et al. Eur. J Pharmacol, 2008, 582, 154-161). IL-13 binds to cell surface receptors activating members of the Janus family of kinases (JAK) which then phosphorylate STAT6 and subsequently activates further transcription pathways. In the described model, a dose of IL-13 was delivered locally into the lungs of mice to induce the phosphorylation of STAT6 (pSTAT6) which is then measured as the endpoint.
Adult balb/c mice from Harlan were used in the assay. On the day of study, animals were lightly anesthetized with isoflurane and administered either vehicle or test compound (0.5 mg/mL, 50 μL total volume over several breaths) via oral aspiration. Animals were placed in lateral recumbency post dose and monitored for full recovery from anesthesia before being returned to their home cage. Four hours later, animals were once again briefly anesthetized and challenged with either vehicle or IL-13 (0.03 μg total dose delivered, 50 μL total volume) via oral aspiration before being monitored for recovery from anesthesia and returned to their home cage. One hour after vehicle or IL-13 administration, lungs were collected for both pSTAT6 detection using an anti-pSTAT6 ELISA (rabbit mAb capture/coating antibody; mouse mAb detection/report antibody: anti-pSTAT6-pY641; secondary antibody: anti-mouse IgG-HRP) and analyzed for total drug concentration as described above in Assay 4.
Selected compounds of the invention were tested in the assay. Activity in the model is evidenced by a decrease in the level of pSTAT6 present in the lungs of treated animals at 5 hours compared to the vehicle treated, IL-13 challenged control animals. The difference between the control animals which were vehicle-treated, IL-13 challenged and the control animals which were vehicle-treated, vehicle challenged dictated the 0% and 100% inhibitory effect, respectively, in any given experiment.

Series [2] concerns the target JAK1 (Homo sapiens (Human), UniProt P23458). Briefly: LanthaScreen JAK biochemical assay, JAK1. The following applies: C-1 vs Example 1, C-2 vs 7, C-3 vs 13, C-4 vs 6. (TR-FRET usually uses a lanthanide donor and a delayed reading to cut background.)
A short description of series [3]: Dynamic moisture sorption assessment. The series is classed as physicochemical. The conditions noted are these: humidity range of 5% to 90% relative humidity, about 25° C. The method, then:
Dynamic moisture sorption (DMS) measurement was performed using a VTI atmospheric microbalance, SGA-100 system (VTI Corp., Hialeah, Fla. 33016). A weighed sample was used and the humidity was lowest possible value (close to 0% RH) at the start of the analysis. The DMS analysis consisted of an initial drying step (˜0% RH) for 120 minutes, followed by two cycles of sorption and desorption with a scan rate of 5% RH/step over the humidity range of 5% RH to 90% RH. The DMS run was performed isothermally at 25° C.

JAK1, sequence (P23458 whole entry): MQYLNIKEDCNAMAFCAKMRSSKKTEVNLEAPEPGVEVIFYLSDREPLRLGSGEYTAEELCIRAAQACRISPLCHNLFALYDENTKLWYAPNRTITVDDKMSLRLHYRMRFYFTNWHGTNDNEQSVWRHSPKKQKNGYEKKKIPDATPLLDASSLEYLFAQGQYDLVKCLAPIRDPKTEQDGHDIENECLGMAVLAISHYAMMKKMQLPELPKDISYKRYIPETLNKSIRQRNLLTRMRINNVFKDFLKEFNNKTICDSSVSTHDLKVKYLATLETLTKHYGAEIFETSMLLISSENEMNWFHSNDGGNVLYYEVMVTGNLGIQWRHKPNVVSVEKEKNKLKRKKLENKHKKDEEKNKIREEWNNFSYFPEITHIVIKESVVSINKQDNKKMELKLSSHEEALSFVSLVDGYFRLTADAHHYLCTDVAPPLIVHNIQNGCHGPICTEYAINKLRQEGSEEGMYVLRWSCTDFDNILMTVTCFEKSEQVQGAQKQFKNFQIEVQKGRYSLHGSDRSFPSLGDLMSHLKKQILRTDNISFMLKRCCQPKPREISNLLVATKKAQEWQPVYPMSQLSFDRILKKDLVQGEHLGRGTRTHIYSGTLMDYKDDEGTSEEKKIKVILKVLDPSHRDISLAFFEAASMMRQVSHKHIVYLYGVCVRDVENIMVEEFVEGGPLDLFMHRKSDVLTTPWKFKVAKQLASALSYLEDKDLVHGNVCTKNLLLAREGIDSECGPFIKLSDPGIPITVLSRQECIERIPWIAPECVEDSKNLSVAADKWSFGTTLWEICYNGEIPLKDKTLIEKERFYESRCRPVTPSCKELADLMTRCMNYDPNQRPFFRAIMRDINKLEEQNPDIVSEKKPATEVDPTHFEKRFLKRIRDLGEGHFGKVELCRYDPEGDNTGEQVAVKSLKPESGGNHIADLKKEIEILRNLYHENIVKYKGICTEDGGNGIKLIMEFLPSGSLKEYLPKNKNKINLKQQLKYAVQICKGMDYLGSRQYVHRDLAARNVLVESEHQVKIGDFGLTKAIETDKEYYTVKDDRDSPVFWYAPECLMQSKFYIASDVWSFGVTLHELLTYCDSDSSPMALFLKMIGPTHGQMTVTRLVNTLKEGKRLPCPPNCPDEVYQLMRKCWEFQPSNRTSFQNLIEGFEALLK

For the compound `CCc1cc(O)c(F)cc1-c1ccc2c(-c3nc4c([nH]3)CCN(C3CN(C5CCS(=O)(=O)C5)C3)C4)n[nH]c2c1` (centres unmarked) [Example 1-15], the “pSTAT6 inhibition in the pharmacodynamic assay” value in series [1] is on record as “exceptions”.
The same measure, in the same setting: the entry for `CCc1cc(O)c(F)cc1-c1ccc2c(-c3nc4c([nH]3)CCN(CCNC3(C#N)CC3)C4)n[nH]c2c1` [Example 3-1] is “exceptions”.
Consider `CCc1cc(O)c(F)cc1-c1ccc2c(-c3nc4c([nH]3)CCN(C3CC(C)C3)C4)n[nH]c2c1` (centres unmarked) [Example C-1, 5-Ethyl-2-fluoro-4-(3-(5-(3-methylcyclobutyl)-4,5,6,7-tetrahydro-1H-imidazo[4,5-c]pyridin-2-yl)-1H-indazol-6-yl)phenol], for which, in series [1], the “lung concentration smaller than that of the corresponding compound of the invention by a factor of” value is 36. The “fold less potent than the corresponding compound of the invention in the enzyme assay” value in series [2] is 2 fold.
The like results for `CCc1cc(O)c(F)cc1-c1ccc2c(-c3nc4c([nH]3)CCN(CCC(C)C)C4)n[nH]c2c1` [Example C-2] were, in that order, 52 and 3 fold.
The like results for `CCc1cc(O)c(F)cc1-c1ccc2c(-c3nc4c([nH]3)CCN(CC3CCCOC3)C4)n[nH]c2c1` (centres unmarked) [Example C-3] were, in that order, 13 and 6 fold.
The like results for `CCc1cc(O)c(F)cc1-c1ccc2c(-c3nc4c([nH]3)CCN(C3CCC(C)CC3)C4)n[nH]c2c1` (centres unmarked) [Example C-4] were, in that order, 23 and 2.5 fold.
For the compound `CCc1cc(O)c(F)cc1-c1ccc2c(-c3nc4c([nH]3)CCN(C3CCN(C)CC3)C4)n[nH]c2c1` [crystalline hydrate, 5-ethyl-2-fluoro-4-(3-(5-(1-methylpiperidin-4-yl)-4,5,6,7-tetrahydro-1H-imidazo[4,5-c]pyridin-2-yl)-1H-indazol-6-yl)phenol], the “weight gain (weight change) on moisture sorption” value in series [3] is “less than 0.12%”.
